Data as given in PMC7465109, “Discovery of Sulfated Small Molecule Inhibitors of Matrix Metalloproteinase-8” (Biomolecules, 2020).

Experiments:
MMP-8 = molecular target: T1, MMP-8 (Homo sapiens, UniProt P22894); assay: Direct inhibition of MMP-8, fluorogenic substrate hydrolysis assay; type: biochemical; conditions: for IC50 / ΔY (efficacy of MMP-8 inhibition): Tris-buffered saline, 10 mM CaCl2, 1 µM ZnCl2, pH 7.5, 37 °C; for IC50: error ± 1 SD, read-out: IC50 (potency of MMP-8 inhibition); for ΔY (efficacy of MMP-8 inhibition): from dose-response regression
T1 construct: purchased R&D Systems (Minneapolis, MN, USA)
Method: NSGMs were screened for the inhibition of MMP-8 using a fluorogenic substrate assay, as described earlier. Briefly, 100 µg/mL pro-MMP-8 was activated by incubating with 1mM p-aminomercuric acetate at 37 °C for 1 hr. Activated MMP-8 (10 nM, final) was then incubated with NSGMs (100 µM, final) in Tris-buffered saline containing 10 mM CaCl2,1 µM ZnCl2, pH 7.5 for 10 min at 37 °C. Residual MMP-8 activity was measured by adding the fluorogenic substrate (DNP-Pro-Leu-Ala- Tyr-Trp-Ala-Arg, 20 µM, final) and monitoring initial linear rate of increase in fluorescence. IC50s were calculated using the following equation, Y=Y0+YM−Y0/1+10^(log[I]0−logIC50)×HS . Y is the ratio of residual enzyme activity in the presence of NSGM to that in its absence, Y0 and YM are the minimal and maximal values of Y, respectively, obtained following regression, and HS is the Hill slope of inhibition.

MMP-9 = molecular target: T2, MMP-9 (Homo sapiens, UniProt P14780); assay: MMP-9 inhibitor screening assay kit (Abcam #ab139448); type: biochemical; conditions: NSGM 100 µM; read-out: MMP-9 inhibition in screen
T2 construct: purchased Abcam (Cambridge, UK) ab139448
Method: Screening of sulfated benzofurans and quinazolinones (100 µM, final) against MMP-9 was performed using a commercially available assay kit (Abcam catalog #ab139448) following manufacturer’s protocol. All experiments were performed at least twice in duplicates.

[1] = NSGM 100 µM, MMP-8 10 nM, pH 7.5, 37 °C

T1 sequence (P22894 101-467): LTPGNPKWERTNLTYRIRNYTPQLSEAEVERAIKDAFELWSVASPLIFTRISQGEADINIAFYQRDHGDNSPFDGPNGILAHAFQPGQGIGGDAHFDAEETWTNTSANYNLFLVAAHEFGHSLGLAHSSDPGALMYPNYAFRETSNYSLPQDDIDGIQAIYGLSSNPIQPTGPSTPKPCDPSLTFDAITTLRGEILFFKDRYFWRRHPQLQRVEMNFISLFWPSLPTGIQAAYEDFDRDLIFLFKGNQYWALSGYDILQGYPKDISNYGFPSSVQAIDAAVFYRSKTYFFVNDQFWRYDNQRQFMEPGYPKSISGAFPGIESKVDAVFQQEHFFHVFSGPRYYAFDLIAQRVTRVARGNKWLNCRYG
T2 sequence (P14780 107-444 limits assumed): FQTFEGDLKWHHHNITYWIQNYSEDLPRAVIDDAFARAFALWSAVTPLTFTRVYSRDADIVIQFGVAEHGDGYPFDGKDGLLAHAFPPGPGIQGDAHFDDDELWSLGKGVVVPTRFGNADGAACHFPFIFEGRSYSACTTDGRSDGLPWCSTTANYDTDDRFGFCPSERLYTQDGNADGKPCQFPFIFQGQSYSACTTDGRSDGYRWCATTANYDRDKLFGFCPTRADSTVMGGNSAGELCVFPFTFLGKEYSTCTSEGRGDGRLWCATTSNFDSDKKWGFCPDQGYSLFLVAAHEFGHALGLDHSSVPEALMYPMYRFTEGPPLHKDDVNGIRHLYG

| MMP-8 inhibition in library screen (MMP-8; [1]) [%] | IC50 (MMP-8) [µM] | ΔY (efficacy of MMP-8 inhibition) (MMP-8) [%] | MMP-8 inhibition in library screen (result in words) (MMP-8; [1]) | inhibition at 100 µM (MMP-9) [%] | Structure (SMILES) |
| --- | --- | --- | --- | --- | --- |
| > 80 | 34 ± 4 | 98 ± 8 | – | – | O=c1c2ccccc2nc(-c2ccc(OS(=O)(=O)O)cc2)n1CCCCCCCCCCCCn1cc(Cn2c(-c3ccc(OS(=O)(=O)O)cc3)nc3ccccc3c2=O)nn1 [NSGM 42] |
| > 80 | 25 ± 1 | 100 ± 2 | – | – | O=c1c2ccccc2nc(-c2ccc(OS(=O)(=O)O)cc2)n1CCCCCCCCCn1cc(Cn2c(-c3ccc(OS(=O)(=O)O)cc3)nc3ccccc3c2=O)nn1 [NSGM 40] |
| > 80 | 15 ± 1 | 97 ± 2 | – | – | O=c1c2ccccc2nc(-c2ccc(OS(=O)(=O)O)cc2)n1CCCCCCCCCCn1cc(Cn2c(-c3ccc(OS(=O)(=O)O)cc3)nc3ccccc3c2=O)nn1 [NSGM 41] |
| – | – | – | did not inhibit MMP-8 | > 80 | CCOC(=O)c1c(C)oc2cc(OCC3CCCCC3)c(OCc3oc4cc(OCC5CCCCC5)c(OS(=O)(=O)O)cc4c3C(=O)OCC)cc12 [NSGM 29] |
